Experimental data as given in patent US12679878B2, “CRF2 receptor agonists and their use in therapy” (SANOFI, priority 2020, dated 2026).
Starred links: 1 amine or outer side, 2 acyl side, 3 side chain; linkers in the order of their positions; H or OH if unused. Non-standard residues stand in square brackets, D forms with d. Residues, ends and D or L forms follow the SMILES beside them. Groups on a side chain read outwards from the residue. *: point of attachment. C20 diacid = O=C(O)CCCCCCCCCCCCCCCCCCC(=O)*; C18 diacid = O=C(O)CCCCCCCCCCCCCCCCC(=O)*; γGlu = O=C(O)[C@H](CCC(=O)[*:2])N[*:1]; AEEA = NCCOCCOCC(=O)O; Aib = CC(C)(N)C(=O)O

Target: T1, human CRF2α receptor (Homo sapiens, UniProt Q13324)
T1 construct: expressed in transfected cells; host or cells: TeloHEAC
T1 sequence (Q13324 1-411): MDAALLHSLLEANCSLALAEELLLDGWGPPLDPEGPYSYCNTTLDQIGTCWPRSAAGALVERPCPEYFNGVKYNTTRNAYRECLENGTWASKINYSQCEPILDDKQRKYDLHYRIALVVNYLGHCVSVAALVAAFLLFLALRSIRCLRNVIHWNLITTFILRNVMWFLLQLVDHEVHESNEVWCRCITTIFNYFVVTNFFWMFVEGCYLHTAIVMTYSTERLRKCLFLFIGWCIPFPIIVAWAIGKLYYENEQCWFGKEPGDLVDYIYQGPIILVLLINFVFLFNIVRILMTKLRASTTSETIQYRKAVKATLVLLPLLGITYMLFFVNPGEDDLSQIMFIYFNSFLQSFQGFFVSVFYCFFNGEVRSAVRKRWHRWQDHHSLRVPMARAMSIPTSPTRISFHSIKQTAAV
Test: cAMP agonism at human CRF2 α receptor in TeloHEAC cells (Example 7)
Format: cell-based
Conditions: cAMP HTRF, TeloHEAC cells stably expressing human CRF2 α, 0% HSA; read-out: EC50 [nM], 0% HSA
Procedure, shortened: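 Steps: thaw and wash cells; suspend in 1×HBSS, 20 mM HEPES, 0 or 0.1% HSA, 2 mM IBMX; add compound, 30 min RT; lyse with HTRF reagents, 1 h; read 665/620 nm. EC50 calculated, E% versus 1000 nM UCN2.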

| Structure (SMILES) | EC50 [nM] |
| --- | --- |
| CC[C@H](C)[C@H](NC(=O)[C@H](CCC(N)=O)NC(=O)[C@H](CCCCNC(=O)COCCOCCNC(=O)COCCOCCNC(=O)CC[C@H](NC(=O)CCCCCCCCCCCCCCCCCCC(=O)O)C(=O)O)NC(=O)[C@H](CC(C)C)NC(=O)CNC(=O)[C@@H](NC(=O)[C@@H]1CCCN1C(=O)[C@@H](NC(=O)[C@H](CC(=O)O)NC(=O)[C@H](CC(C)C)NC(=O)[C@H](CO)NC(=O)[C@H](CC(C)C)NC(=O)[C@@H](NC(=O)[C@@H](N)Cc1ccccc1)[C@@H](C)O)C(C)C)[C@@H](C)CC)C(=O)N[C@@H](CC(C)C)C(=O)N[C@@H](CC(C)C)C(=O)N[C@@H](CCCCN)C(=O)N[C@@H](CCC(N)=O)C(=O)N[C@@H](CCC(N)=O)C(=O)N[C@@H](CCCCN)C(=O)N[C@@H](CCC(N)=O)C(=O)N[C@@H](CCCCN)C(=O)N[C@@H](CCCCN)C(=O)N[C@@H](CCC(=O)O)C(=O)N[C@@H](CCCNC(=N)N)C(=O)N[C@@H](CCC(N)=O)C(=O)N[C@@H](CCCCN)C(=O)N[C@@H](C)C(=O)N[C@@H](CCC(=O)O)C(=O)N[C@H](C(=O)N[C@@H](CC(N)=O)C(=O)N[C@H](C(=O)N[C@@H](CCC(N)=O)C(=O)N[C@@H](CC(C)C)C(=O)N[C@@H](CC(C)C)C(=O)N[C@@H](CCC(=O)O)C(=O)N[C@@H](CCCNC(=N)N)C(=O)N[C@H](C(N)=O)C(C)C)C(C)C)[C@@H](C)O [compound 66] (H-FTLSLDVPIGLK([AEEA-AEEA-γGlu-C20 diacid])QILLKQQKQKKERQKAETNVQLLERV-NH2; N-terminus assumed) | 25.4 |
| CC[C@H](C)[C@H](N)C(=O)N[C@H](C(=O)N[C@@H](CC(C)C)C(=O)N[C@@H](CO)C(=O)N[C@@H](CC(C)C)C(=O)N[C@@H](CC(=O)O)C(=O)N[C@H](C(=O)N1CCC[C@H]1C(=O)N[C@H](C(=O)N[C@@H](CCCCN)C(=O)N[C@@H](CC(C)C)C(=O)N[C@@H](CCCCNC(=O)COCCOCCNC(=O)COCCOCCNC(=O)CC[C@H](NC(=O)CCCCCCCCCCCCCCCCC(=O)O)C(=O)O)C(=O)N[C@@H](CCCCN)C(=O)NC(C)(C)C(=O)N[C@@H](CC(C)C)C(=O)N[C@@H](CC(C)C)C(=O)N[C@@H](CCC(=O)O)C(=O)N[C@@H](CCC(N)=O)C(=O)N[C@@H](CCC(=O)O)C(=O)N[C@@H](CCCNC(=N)N)C(=O)N[C@@H](CCC(N)=O)C(=O)N[C@@H](CCCCN)C(=O)N[C@@H](CCCCN)C(=O)N[C@@H](CCC(N)=O)C(=O)N[C@@H](CCCNC(=N)N)C(=O)N[C@@H](CCC(=O)O)C(=O)N[C@@H](CCC(N)=O)C(=O)N[C@@H](C)C(=O)N[C@@H](CCC(=O)O)C(=O)N[C@H](C(=O)N[C@@H](CC(N)=O)C(=O)NC(C)(C)C(=O)N[C@@H](CCC(N)=O)C(=O)N[C@H](C(=O)N[C@@H](CC(C)C)C(=O)N[C@@H](C)C(=O)N[C@@H](CCC(N)=O)C(=O)N[C@H](C(N)=O)C(C)C)[C@@H](C)CC)[C@@H](C)O)[C@@H](C)CC)C(C)C)C(C)C [compound 71] (H-IVLSLDVPIKLK([AEEA-AEEA-γGlu-C18 diacid])K[Aib]LLEQERQKKQREQAETN[Aib]QILAQV-NH2; N-terminus assumed) | 3.15 |
| CC[C@H](C)[C@H](N)C(=O)N[C@H](C(=O)N[C@@H](CC(C)C)C(=O)N[C@@H](CO)C(=O)N[C@@H](CC(C)C)C(=O)N[C@@H](CC(=O)O)C(=O)N[C@H](C(=O)N1CCC[C@H]1C(=O)N[C@H](C(=O)NCC(=O)N[C@@H](CC(C)C)C(=O)N[C@@H](CCCCNC(=O)COCCOCCNC(=O)COCCOCCNC(=O)CC[C@H](NC(=O)CCCCCCCCCCCCCCCCC(=O)O)C(=O)O)C(=O)N[C@@H](CCC(N)=O)C(=O)N[C@H](C(=O)N[C@@H](CC(C)C)C(=O)N[C@@H](CC(C)C)C(=O)N[C@@H](CCC(=O)O)C(=O)N[C@@H](CCC(N)=O)C(=O)N[C@@H](CCC(=O)O)C(=O)N[C@@H](CCCNC(=N)N)C(=O)N[C@@H](CCC(N)=O)C(=O)N[C@@H](CCCCN)C(=O)N[C@@H](CCCCN)C(=O)N[C@@H](CCC(N)=O)C(=O)N[C@@H](CCCNC(=N)N)C(=O)N[C@@H](CCC(N)=O)C(=O)N[C@@H](CCC(N)=O)C(=O)N[C@@H](C)C(=O)N[C@@H](CCC(=O)O)C(=O)N[C@H](C(=O)N[C@@H](CC(N)=O)C(=O)NC(C)(C)C(=O)N[C@@H](CCC(N)=O)C(=O)N[C@H](C(=O)N[C@@H](CC(C)C)C(=O)N[C@@H](C)C(=O)N[C@@H](CCC(N)=O)C(=O)N[C@H](C(N)=O)C(C)C)[C@@H](C)CC)[C@@H](C)O)[C@@H](C)CC)[C@@H](C)CC)C(C)C)C(C)C [compound 76] (H-IVLSLDVPIGLK([AEEA-AEEA-γGlu-C18 diacid])QILLEQERQKKQRQQAETN[Aib]QILAQV-NH2) | 13.4 |

These reach a lower EC50. Values come first.

| EC50 [nM] | Structure (SMILES) |
| --- | --- |
| 2.6 | CC[C@H](C)[C@H](N)C(=O)N[C@H](C(=O)N[C@@H](CC(C)C)C(=O)N[C@@H](CO)C(=O)N[C@@H](CC(C)C)C(=O)N[C@@H](CC(=O)O)C(=O)N[C@H](C(=O)N1CCC[C@H]1C(=O)N[C@H](C(=O)N[C@@H](CCCCN)C(=O)N[C@@H](CC(C)C)C(=O)N[C@@H](CCCCNC(=O)COCCOCCNC(=O)COCCOCCNC(=O)CC[C@H](NC(=O)CCCCCCCCCCCCCCCCC(=O)O)C(=O)O)C(=O)N[C@@H](CCC(N)=O)C(=O)N[C@H](C(=O)N[C@@H](CC(C)C)C(=O)N[C@@H](CC(C)C)C(=O)N[C@@H](CCC(=O)O)C(=O)N[C@@H](CCC(N)=O)C(=O)N[C@@H](CCC(=O)O)C(=O)N[C@@H](CCCNC(=N)N)C(=O)N[C@@H](CCC(N)=O)C(=O)N[C@@H](CCCCN)C(=O)N[C@@H](CCCCN)C(=O)N[C@@H](CCC(N)=O)C(=O)N[C@@H](CCCNC(=N)N)C(=O)N[C@@H](CCC(N)=O)C(=O)N[C@@H](CCCCN)C(=O)N[C@@H](C)C(=O)N[C@@H](CCC(=O)O)C(=O)N[C@H](C(=O)N[C@@H](CC(N)=O)C(=O)NC(C)(C)C(=O)N[C@@H](CCC(N)=O)C(=O)N[C@H](C(=O)N[C@@H](CC(C)C)C(=O)N[C@@H](C)C(=O)N[C@@H](CCC(N)=O)C(=O)N[C@H](C(N)=O)C(C)C)[C@@H](C)CC)[C@@H](C)O)[C@@H](C)CC)[C@@H](C)CC)C(C)C)C(C)C [compound 73] (H-IVLSLDVPIKLK([AEEA-AEEA-γGlu-C18 diacid])QILLEQERQKKQRQKAETN[Aib]QILAQV-NH2) |
| 2.12 | CC[C@H](C)[C@H](N)C(=O)N[C@H](C(=O)N[C@@H](CC(C)C)C(=O)N[C@@H](CO)C(=O)N[C@@H](CC(C)C)C(=O)N[C@@H](CC(=O)O)C(=O)N[C@H](C(=O)N1CCC[C@H]1C(=O)N[C@H](C(=O)N[C@@H](CCCCN)C(=O)N[C@@H](CC(C)C)C(=O)N[C@@H](CCCCNC(=O)COCCOCCNC(=O)COCCOCCNC(=O)CC[C@H](NC(=O)CCCCCCCCCCCCCCCCC(=O)O)C(=O)O)C(=O)N[C@@H](CCC(N)=O)C(=O)N[C@H](C(=O)N[C@@H](CC(C)C)C(=O)N[C@@H](CC(C)C)C(=O)N[C@@H](CCC(=O)O)C(=O)N[C@@H](CCC(N)=O)C(=O)N[C@@H](CCC(=O)O)C(=O)N[C@@H](CCCNC(=N)N)C(=O)N[C@@H](CCC(N)=O)C(=O)N[C@@H](CCCCN)C(=O)N[C@@H](CCCCN)C(=O)N[C@@H](CCC(N)=O)C(=O)N[C@@H](CCCNC(=N)N)C(=O)N[C@@H](CCC(=O)O)C(=O)N[C@@H](CCC(N)=O)C(=O)N[C@@H](C)C(=O)N[C@@H](CCC(=O)O)C(=O)N[C@H](C(=O)N[C@@H](CC(N)=O)C(=O)NC(C)(C)C(=O)N[C@@H](CCC(N)=O)C(=O)N[C@H](C(=O)N[C@@H](CC(C)C)C(=O)N[C@@H](CCC(=O)O)C(=O)N[C@@H](CCCNC(=N)N)C(=O)N[C@H](C(N)=O)C(C)C)[C@@H](C)CC)[C@@H](C)O)[C@@H](C)CC)[C@@H](C)CC)C(C)C)C(C)C [compound 74] (H-IVLSLDVPIKLK([AEEA-AEEA-γGlu-C18 diacid])QILLEQERQKKQREQAETN[Aib]QILERV-NH2) |
